Laboratory results from patent publication US20030005484A1, “Microbiocidal and pesticidal aromatic aldehydes” (ProGuard, Inc., priority 1994, published 2003).
Several values for one entry are separate records, joined by “and”; a condition that tells them apart may be missing. Equal values may be shown once.

Legend:
[1] = test system: Fusarium subglutinans f. sp. pini; test: radial growth on amended potato dextrose agar; assay type: cell-based; conditions: controls: Saponin alone, 5 ppm Benomyl, Glutaraldehyde 2%; five days at 18° C
Procedure: A double-blind bioassay was undertaken using cinnamic aldehyde in various concentrations and formulations. The bioassay was based on inhibition of radial growth of Fusarium subglutinans f. sp. pini. Eight ml of formulation (concentration unknown) was pipetted into 200 ml of molten 2% potato dextrose agar (PDA) and the mixture was dispersed into five plastic petri dishes (25 ml dish). Each of four plates was inoculated at the center with an agar plug transferred from a growing PDA culture of Fusarium subglutinans f. sp. pini (isolate SL-1, UCB), while the fifth plate was left noninoculated as a control. These steps were repeated for each formulation of the cinnamic aldehyde. As a positive control, four PDA plates amended with 5 ppm benomyl were inoculated. as described; the negative control was four unamended PDA plates that were inoculated with F. subglutinans. All inoculated and non-inoculated plates were incubated at 18° C. for five days, after which colony diameters were measured.

[2] = test system: powdery mildew; test: powdery mildew on roses, disease rating / MPDC after foliar spray; assay type: in vivo, Sphaerotheca pannosa; conditions: for Mean % Disease Control, rose powdery mildew: no aldehyde: additive alone (T80 10 g, NaHCO3 80 g) or Benomyl per manufacturer instructions, four days
Procedure: Each formulation is evaluated for its effect on specific pests and/or plant host using any of the compounds of formula (1) as well as other components of the formulation such as Tween 80 and/or sodium bicarbonate, with the combination and effective amount of each component adapted for a particular application to minimize toxicity while maintaining or increasing the antipathogenic effect of the formulation. The effective amount of each component may be determined by systematically varying the amount of that component in a test formulation, treating a plant of interest with the test formulation, and monitoring the level of pest infestation compared to an untreated control plant. An effective amount of a test component is identified as the amount that controls the growth of the pathogen on the plant host, thus reducing the disease rating of the plant. The mean percentage disease […] (MPDC) can be calculated for each particular application. MPDC is defined by the formula: [formula] Eight cultivars of rose were tested to investigate the effect of a cinnamic aldehyde/NaHCO3 formulation on rust and spores. The cultivars used included Moss unnamed (Moss), […], Rosette Delize (Hybrid Tea), Rosa Rugosa Rubra (Rugosa), Abel Morrison (Hybrid perpetual), John Laing, Betty Prior, and Rose de Roi. […] The Hybrid Tea and Hybrid perpetual were rated 3 and the Rugosa was rated 1. […] Control plants received no treatment. […] Moreover, the treatment appeared to have induced systemic resistance. […] Plants were an average of 0.86 m apart. […] Controls were untreated plants. […] Weekly reviews were made of the various plants. […] of infected rose in dedicated experimental rose gardens were used. Four Mrs. John Laing (Hybrid perpetual) and two Marchionese of Londonderry (Hybrid perpetual) rose plants were treated with one of two formulations of coniferyl aldehyde. […] The first two Mrs. […] Mrs. […] Both Marchionese of Londonderry plants (P5 and P6) were rated 5 for powdery mildew and rust after Paulus and Nelson (supra). Two treatment formulae were used for this trial. […] Control plants were sprayed with water alone. The change in the rating from pre-treatment to post-treatment was calculated as the mean percentage of disease control (MPDC) as described herein. A three treatment experiment with cinnamic aldehyde formula, coniferyl aldehyde formula and combined cinnamic and coniferyl aldehyde formula was carried out on field grown roses known to be susceptible to powdery mildew. The plants were blocked by variety before fungicide treatments and were randomized as to the plants. Two varieties were used in each of the three experiments described below. […] In experiment 3 Comte de Chambord (Portland) and Madame Pierre Oger (Bourbon) were used. In Experiment 1, the effect of cinnamic aldehyde alone and in combination with Tween 80 and/or NaHCO3 component was evaluated in experiment 2 the effect of coniferyl aldehyde alone and in combination with Tween 80 and/or NaHCO3 was evaluated and in experiment 3 a combination of cinnamic aldehyde and coniferyl aldehyde with Tween 80 and/or NaHCo3 was evaluated. […] See Table 3 for the treatment protocol; formula 1 was used for these experiments. […] Plants were evaluated using the Paulus/Nelson scale just prior to and four days after treatment. […] Moreover, cinnamic aldehyde, coniferyl aldehyde, Tween 80 and NaHCO3 are used in the food industry and there is likely to be little toxicological risk to the consumer or handler from any horticultural or food crop sprayed in this way. Similarly, as these chemicals leave no toxic residue, there is little chance of any detrimental effect on the wider environment, and their use is likely to be compatible with current biological control methods such as beneficial insects and/or microorganisms.

[3] = test system: grape phylloxera eggs; test: whole plant or invertebrate; conditions: for nymphs that died in the shell (DIS): controls: Carbofuran 10 ppm, malathion 250 ppm, 7 days; for approximate egg hatch LD 50: egg tests with CNMA analogs
Procedure: Mixed age groups of 60 grape phylloxera eggs were established on filter paper (Whatman #1, 5.5 cm circles) in 50×9 mm sealed plastic petri dishes treated with 100 μl of solution. A selected concentration of a test formulation of 400 μl was added to the filter disk and the dish closed with the petri dish cover and placed in a plastic container box. After 6 hours, the box was placed in an environmental chamber at 24° C. in the dark. The eggs were placed in groups of 10. After one week, the percentage of hatch is determined. In an initial test, doses from 0.1 to 25,000 ppm cinnamic aldehyde in 6% NaHCO3 and 2% Tween 80 were evaluated with a single group of eggs at each dosage. Three replicates of the experiment were performed. […] LD50 and LD95 were determined by probit analysis.
Grape phylloxera eggs were treated with cinnamaldehyde (CNMA) in a 6% NaHCO3, 2% Tween-80 formulation in a laboratory bioassay. Mortality of the eggs was indicated by failure of the egg shell to split. […] Leaves of one-year-old greenhouse Vitis vinifera cultivar Merlot vines heavily infested with grape phylloxera were sprayed to run-off with a CNMA treatment using the same formulation. […] Roots taken from plants 1, 2 and 5 weeks after CNMA or other treatments were placed in Petri dish bioassays and infested with untreated phylloxera eggs.
Eggs of various age classes were placed on Whatman #1 filter paper moistened with enough treatment solution to form a meniscus about halfway up the sides of the eggs. The pieces of filter paper with eggs were maintained in sealed plastic Petri dishes at […] until they were 7 days old and then hatched individuals were counted. Hatch was considered successful if the […]

[4] = test system: root-knot nematode, Meloidogyne javanica; assay type: in vivo; conditions: controls: saponin alone (1:60 dilution of 10 brix concentrate; compared with 100% mortality), Ethanol (95%)
Procedure: In a double blind study, concentrations of the subject aldehyde compounds were tested for activity against root-knot nematode, Meloidogyne javanica. Nematodes were put in direct contact with the chemical and at 24 hour intervals, mortality was assessed both visually and by probing. Meloidogyne javanica were produced using hydroponics. The nematodes were harvested and used within 24 hours.
Approximately 100 nematodes in 0.07 mls of water were pipetted into a syracuse dish (Fisher) and 1 ml of test formulation was immediately pipetted into each dish. The dishes were then placed into plastic bags to retain moisture and prevent evaporation. Four syracuse dishes were used for each solution test formulation. […] Moving nematodes were counted as living.

[5] = test system: silverleaf white fly, Bemisia argentifolii; test: silver leaf white fly Petri dish bioassay; conditions: for Silver Leaf White Fly Mortality (Percent): no aldehyde: T80 (10 g), NaHCO3, T80(2%) + NaHCO3 (6%) or Malathion (250 ppm) alone
Procedure: (§1) Activity of cinnamic aldehyde and/or coniferyl aldehyde against black bean aphid, Tetranychus urticae, and silverleaf white fly, Bemisia argentifolii was determined as follows:
Petri dishes (60 mm) were treated with cinnamic aldehyde at 10-25,000 ppm in 2% Tween 80 and 6% NaHCO3 dissolved in water, and allowed to air dry. Twenty adult silver leaf white fly were put in each dish, (replicate 10 times). The mortality after three hours in contact with a treated plate, was compared to that of silver leaf white fly in petri dishes treated only with diluent. Malathion at 250 ppm was used as a positive control.

[6] = test system: phylloxera-biotype A; test: greenhouse Merlot vines infested with phylloxera, leaf spray, disease rating of roots; assay type: in vivo, Daktulosphaira vitifoliae; conditions: Experiment 2, 200 ppm Malathion leaf treatment
Source text: For greenhouse tests, one year old potted V. vinifera cultivar merlot plants were used that had been obtained from Foundation Plant Material Service, University of California, Davis. The plants were potted in 10 cm diameter pots and were infested with phylloxera 5 weeks prior to treatment. At the time of spraying with a treatment solution, plant pots were placed in a plastic bag so that chemical runoff from the leaf sprays would not drip into the soil. The plants were sprayed to runoff with a household 1 liter-capacity plastic spray bottle. Plants were allowed to air dry outside and then replaced in the greenhouse. At intervals thereafter, the roots were separated from the potting mix and total phylloxera population estimated.

[7] = test system: black bean aphid, Tetranychus urticae; test: aphid Petri dish bioassay; conditions: malathion 250 ppm, positive control; three hours contact
Procedure: as §1
Petri dishes (60 mm) were treated with cinnamic aldehyde at 10-25,000 ppm in 2% Tween 80 and 6% NaHCO3 dissolved in water, and the dishes allowed to air dry. Twenty adult aphids (Tetranychus urticae) were put in each dish, (replicate 10 times). The mortality after three hours in contact with a treated plate was compared to that of aphids in petri dishes treated only with diluent. Malathion (250 ppm) was used as a positive control.

[8] = test system: grape phylloxera; test: grape phylloxera adult and nymphal mortality, root dip; assay type: in vivo, Daktulosphaira vitifoliae; conditions: Daktulosphaira vitifoliae, 120 h; positive control 250 ppm malathion in water; root dip; 5 days; read-out: mortality of adults and nymphs
Procedure: Approximately twenty four eggs of phylloxera were allowed to develop for up to 30 days on standard excised grape roots. At around 30 days, some of the insects were nymphs while others were adults. New eggs were removed during the process. Insect infected roots were submerged into a test formula for 6 seconds then set aside to dry in the air. The percentage of live insects, as defined by growth, oviposition or limb movement, was determined after 5 days. An insect was considered dead if it abandoned its feed site.
In an initial test, doses of 20,000 ppm cinnamic aldehyde in water (i.e., 2% cinnamic aldehyde) with various additives were evaluated. Cinnamic aldehyde without any additives produced 83.3% mortality. With-1% Tween 80 added, 91.7% mortality was seen. With 6% NaHCO3 added to a solution of 2% cinnamic aldehyde, 91.7% mortality was seen. With 1% Tween 80 and 6% NaHCO3 added to a solution of 2% cinnamic aldehyde, 100% mortality was seen. Water with no additives produced no mortality, while a positive control solution of 250 ppm malathion in water gave 100% mortality.
For nymph and adult tests, eggs were placed on excised root pieces similar to those used for rearing purposes and these were sealed in Petri dishes and held at 24° C. for 18-25 days to allow insects to hatch, initiate feeding sites and develop. At about this time about half the population was in the adult stage. Prior to testing, the population on each root was determined as well as the developmental stage of each insect. Eggs were removed. These root pieces were then dipped for 5 sec into test solutions and allowed to air dry before they were returned to Petri dishes, sealed and placed back in the temperature chamber at 24° C. Mortality was determined after 5 days. Insects were considered dead if they appeared black or desiccated and if they had not developed since the pre-treatment reading and had laid no or few new eggs.

CCCCNC(=O)n1c(NC(=O)OC)nc2ccccc21 [Benomyl, reference compound]
Colony diameter (cm) [1]: 0.000 cm and 0 cm | Mean % Disease Control, rose powdery mildew [2]: 79% | Mean disease control ([2]; sprayed roses, parallel experiments): approximately 80%

CNC(=O)Oc1cccc2c1OC(C)(C)C2 [Carbofuran, reference compound]
nymphs that died in the shell (DIS) [3]: 100%

COC(=O)C=Cc1ccccc1 [Cinnamyl acid methyl ester]
approximate egg hatch LD 50 [3]: > 320 ppm and < 560 ppm

OCC=Cc1ccccc1 [Cinnamyl alcohol]
approximate egg hatch LD 50 [3]: > 320 ppm and < 560 ppm

CCO [Ethanol, reference compound]
mortality at 24 hours [4]: killed all nematodes

O=CCCCC=O [Glutaraldehyde, reference compound]
Colony diameter (cm) [1]: 3.663 cm and 3.66 cm

O=C([O-])O.[Na+] [NaHCO3]
Silver Leaf White Fly Mortality (Percent) [5]: 22.9% | Mean % Disease Control, rose powdery mildew [2]: 44%

CCCCCCCC/C=C\CCCCCCCC(=O)OCCOCC(OCCO)C1OCC(OCCO)C1OCCO (stereo not shown) [T80, Tween 80]
Silver Leaf White Fly Mortality (Percent) [5]: 14.5% | Mean % Disease Control, rose powdery mildew [2]: 0%

CCOC(=O)CC(SP(=S)(OC)OC)C(=O)OCC (stereo not shown) [malathion, reference compound]
Average disease rating (0-4) ([6]; 1 day post treatment): 4 (3) | Average disease rating (0-4) ([6]; 2 days post treatment): 2.3(3) | Average disease rating (0-4) ([6]; 7 days post treatment): 0(2) | silver leaf white fly killed ([5]; malathion 250 ppm, positive control, three hours contact): 100% | nymphs that died in the shell (DIS) [3]: 100% | aphids killed [7]: 100% | mortality at 250 ppm [8]: 100%
